One series has as its target EGFR-WT (Homo sapiens, UniProt P00533). Kind of series: Wild-type EGFR biochemical activity assay (HTRF). Here is the method:
(§1) Assay 1: Wild-type EGFR, HER2 and HER4, and mutant EGFR biochemical activity assay
(§2) 10 nL of Serially diluted compounds were transferred to assay plates using the labcyte Echo 550, and 5 uL of 2× enzymes in assay buffer were subsequently dispensed. The assay plate was covered with an adhesive plate seal, and briefly spinned for 30 s at 1000 g. 5 uL of 2× TK-substrate-biotin and ATP mixed in assay buffer were added.
(§3) IC50 was calculated and analyzed using a 4 parametric logistic model.
In general terms: TR-FRET usually uses a lanthanide donor and a delayed reading to cut background.

Another series concerns the target EGFR A763_Y764insFHEA (Homo sapiens, UniProt P00533, INS763FHEA). Briefly: Mutant EGFR biochemical activity assay (HTRF). The following applies: read-out: IC50 (nM) EGFR A763_Y764 insFHEA. Here is the method: as §1, §2, §3
Another series addresses EGFR D770-N771insNPG (Homo sapiens, UniProt P00533, INS770NPG). Kind of series: Mutant EGFR biochemical activity assay (HTRF). As to the method: as §1, §2, §3
A further series deals with EGFR D770GY (Homo sapiens, UniProt P00533, D770Y/INS769G). Briefly: Mutant EGFR biochemical activity assay (HTRF). As to the method:
as §1, §2, §3

Series [1] addresses EGFR D770_N771insNPG T790M (Homo sapiens, UniProt P00533, INS770NPG/T790M). Briefly: Mutant EGFR biochemical activity assay (HTRF). The following applies: read-out: IC50 (nM) EGFR D770_N771 insNPG T790M. Here is the method: as §1, §2, §3
The target in a further series is EGFR Del19 (Homo sapiens, UniProt P00533). Kind of series: Mutant EGFR biochemical activity assay (HTRF). As to the method:
as §1, §2, §3

In the next series the target is EGFR L792F (Homo sapiens, UniProt P00533, L792F). Kind of series: Mutant EGFR biochemical activity assay (HTRF). As to the method:
as §1, §2, §3

The next series deals with EGFR L792H (Homo sapiens, UniProt P00533, L792H). Briefly: Mutant EGFR biochemical activity assay (HTRF). As to the method: as §1, §2, §3
The target in a further series is EGFR T790M (Homo sapiens, UniProt P00533, T790M). Kind of series: Mutant EGFR biochemical activity assay (HTRF). As to the method: as §1, §2, §3
A further series has as its target EGFR T790M/L858R (Homo sapiens, UniProt P00533, L858R/T790M). Briefly: Mutant EGFR biochemical activity assay (HTRF). Here is the method:
as §1, §2, §3

Another series deals with HER2 (Homo sapiens, UniProt P04626). Briefly: HER2 biochemical activity assay (HTRF). As to the method:
as §1, §2, §3

The target of another series is HER4 (Homo sapiens, UniProt Q15303). Kind of series: HER4 biochemical activity assay (HTRF). As to the method: as §1, §2, §3
The test system of series [2] is A431 (wild type EGFR, skin cancer). Briefly: Cell proliferation assay (MTT). Format: cell-based. The following applies: Homo sapiens, A-431, 72 h, three days. As to the method: (§4) A431 cells, H1975 and Ba/F3 cells expressing various mutant EGFR were harvested from exponential phase cultures and seeded in 96-well plates at a cell density of 3000 per well for A431 and H1975, and 10000 per well for Ba/F3 cells. After overnight attachment, compounds were 3-fold serially diluted and applied to cells at 30 μM, 10 μM, 3 μM, 1 μM, 0.3 μM, […], 0.03 μM and 0.01 μM with triplicates, and incubated for three days. 20 μL of 5 mg/mL MTT was added afterwards followed by the further addition of 50 μL 10% SDS together with 5% isobutyl alcohol in 0.01 mol/L HCl. The plates were incubated overnight. Absorbance (A) at a wavelength of 570 nm was quantified. Percentage of inhibition was used for the calculation of IC50 based on the bliss method.

Series [3] deals with Ba/F3_EGFR D770_N771insSVD (Homo sapiens, UniProt P00533, DUP768-770, cells depend on it). Kind of series: Cell proliferation assay (MTT). Format: cell-based. The following applies: three days, read-out: Ba/F3_EGFR D770_N771insSVD IC50. Here is the method: as §4
Series [4] concerns the target Ba/F3_EGFR V769_D770insASV (Homo sapiens, UniProt P00533, DUP767-769, cells depend on it). Kind of series: Cell proliferation assay (MTT). It counts as cell-based. The following applies: three days, read-out: Ba/F3_EGFR V769_D770insASV IC50. As to the method: as §4
Series [5] deals with H1975 (EGFR L858R/T790M, NSCLC). Briefly: Cell proliferation assay (MTT). The following applies: Homo sapiens, NCI-H1975, 72 h, three days. It counts as cell-based. As to the method:
as §4

The next series relates to LU-01-0426. Kind of series: Patient derived xenograft (PDX) mouse model. It counts as in vivo, nude mice. The following applies: LU-01-0426, 0.5 mg/kg poziotinib. Here is the method:
(§5) Assay 3. In vivo studies in cell line-derived (CDX) and patient derived xenografts (PDX) mouse models
(§6) Cells (H1975) or tissue pieces (LU0493 and LU0426) were implanted subcutaneously into the left armpit of nude mice. When the average tumor volume reached 100-150 mm^3, mice were randomized by tumor volume and treated with vehicle, compound 1 or poziotinib respectively. Tumor volume and body weight were measured twice per week. Mice were sacrificed on day 21 or day 28, and tumor volume and terminal body weight were recorded. The relative tumor volume, percent of treatment/control values and tumor growth inhibition were calculated and statistics was performed.
(§7) Terminal body weight changes were calculated as percentage of body changes from day 1 to day 21.

The test system of another series is LU-01-0493. Briefly: Patient derived xenograft (PDX) mouse model. The following applies: LU-01-0493, 0.5 mg/kg poziotinib. Format: in vivo, nude mice. As to the method: as §5, §6, §7
(Xenograft models place foreign cells or tissue in a host animal.)

The next series concerns LU-0387. Briefly: Xenograft mouse model LU-0387. Format: in vivo, nude mice. The following applies: LU-0387, 0.5 mg/kg poziotinib.

Sequence of Ba/F3_EGFR V769_D770insASV (P00533 with tags, fused parts or gaps DUP767-769): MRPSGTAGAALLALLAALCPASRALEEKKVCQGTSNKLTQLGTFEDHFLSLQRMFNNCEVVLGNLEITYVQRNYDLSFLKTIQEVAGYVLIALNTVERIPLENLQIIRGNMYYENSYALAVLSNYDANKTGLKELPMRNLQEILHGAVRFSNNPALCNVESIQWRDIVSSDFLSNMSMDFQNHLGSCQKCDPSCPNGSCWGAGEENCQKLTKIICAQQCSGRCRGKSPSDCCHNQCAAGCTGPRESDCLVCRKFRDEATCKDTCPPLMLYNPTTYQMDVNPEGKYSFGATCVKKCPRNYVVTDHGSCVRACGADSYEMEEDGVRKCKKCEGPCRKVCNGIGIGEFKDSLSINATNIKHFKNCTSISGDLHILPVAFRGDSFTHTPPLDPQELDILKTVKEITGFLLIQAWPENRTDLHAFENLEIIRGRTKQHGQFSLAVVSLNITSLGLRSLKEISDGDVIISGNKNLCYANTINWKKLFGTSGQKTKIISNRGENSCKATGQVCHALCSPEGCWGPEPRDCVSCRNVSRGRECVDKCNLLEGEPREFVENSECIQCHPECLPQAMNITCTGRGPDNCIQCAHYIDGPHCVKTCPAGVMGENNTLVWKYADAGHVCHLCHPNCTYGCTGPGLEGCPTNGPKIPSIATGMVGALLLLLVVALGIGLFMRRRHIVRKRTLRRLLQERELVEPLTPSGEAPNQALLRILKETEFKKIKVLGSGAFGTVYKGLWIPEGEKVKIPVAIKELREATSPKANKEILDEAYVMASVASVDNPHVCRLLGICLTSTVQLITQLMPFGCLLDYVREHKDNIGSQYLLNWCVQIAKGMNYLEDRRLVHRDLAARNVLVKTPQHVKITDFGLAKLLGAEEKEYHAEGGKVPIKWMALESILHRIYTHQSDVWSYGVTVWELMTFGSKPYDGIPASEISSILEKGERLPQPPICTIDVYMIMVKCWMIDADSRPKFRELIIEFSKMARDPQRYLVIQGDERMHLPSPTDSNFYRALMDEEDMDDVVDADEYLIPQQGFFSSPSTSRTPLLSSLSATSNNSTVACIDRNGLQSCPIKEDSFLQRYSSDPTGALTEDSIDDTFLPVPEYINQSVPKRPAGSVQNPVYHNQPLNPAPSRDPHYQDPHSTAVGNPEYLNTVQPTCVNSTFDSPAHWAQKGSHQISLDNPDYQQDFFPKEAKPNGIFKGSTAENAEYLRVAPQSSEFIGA
Sequence of EGFR L792H (P00533 25-1210 L792H): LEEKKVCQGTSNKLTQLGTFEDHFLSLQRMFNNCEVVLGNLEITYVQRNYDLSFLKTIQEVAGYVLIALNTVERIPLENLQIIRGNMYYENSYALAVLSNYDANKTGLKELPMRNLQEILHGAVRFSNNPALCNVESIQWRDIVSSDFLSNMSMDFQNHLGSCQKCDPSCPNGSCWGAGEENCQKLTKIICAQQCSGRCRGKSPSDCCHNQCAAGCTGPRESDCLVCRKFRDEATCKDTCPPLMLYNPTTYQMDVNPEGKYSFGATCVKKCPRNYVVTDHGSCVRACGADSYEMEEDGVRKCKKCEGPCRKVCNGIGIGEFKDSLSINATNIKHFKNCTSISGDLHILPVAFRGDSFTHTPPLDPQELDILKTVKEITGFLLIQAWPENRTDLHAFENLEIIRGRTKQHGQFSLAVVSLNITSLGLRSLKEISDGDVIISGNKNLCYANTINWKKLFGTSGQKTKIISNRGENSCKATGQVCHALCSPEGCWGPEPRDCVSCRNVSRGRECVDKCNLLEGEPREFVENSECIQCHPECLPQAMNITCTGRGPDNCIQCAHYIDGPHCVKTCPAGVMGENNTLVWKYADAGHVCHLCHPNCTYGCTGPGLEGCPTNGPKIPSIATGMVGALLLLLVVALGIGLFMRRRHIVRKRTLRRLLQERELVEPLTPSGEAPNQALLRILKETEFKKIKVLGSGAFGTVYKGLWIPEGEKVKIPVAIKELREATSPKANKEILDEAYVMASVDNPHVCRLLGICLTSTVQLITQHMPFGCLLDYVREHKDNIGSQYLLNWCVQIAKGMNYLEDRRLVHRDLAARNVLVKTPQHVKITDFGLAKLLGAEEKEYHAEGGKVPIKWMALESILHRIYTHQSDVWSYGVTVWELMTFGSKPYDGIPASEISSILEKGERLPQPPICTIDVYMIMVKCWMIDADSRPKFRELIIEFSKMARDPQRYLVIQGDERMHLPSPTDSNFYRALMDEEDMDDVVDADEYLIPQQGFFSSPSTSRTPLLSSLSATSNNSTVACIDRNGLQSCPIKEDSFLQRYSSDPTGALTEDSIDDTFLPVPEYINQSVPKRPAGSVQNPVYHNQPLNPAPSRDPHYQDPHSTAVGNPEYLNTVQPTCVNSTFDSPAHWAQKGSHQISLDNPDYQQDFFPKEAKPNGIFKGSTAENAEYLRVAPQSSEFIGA
Sequence of EGFR D770-N771insNPG (P00533 with tags, fused parts or gaps INS770NPG limits assumed): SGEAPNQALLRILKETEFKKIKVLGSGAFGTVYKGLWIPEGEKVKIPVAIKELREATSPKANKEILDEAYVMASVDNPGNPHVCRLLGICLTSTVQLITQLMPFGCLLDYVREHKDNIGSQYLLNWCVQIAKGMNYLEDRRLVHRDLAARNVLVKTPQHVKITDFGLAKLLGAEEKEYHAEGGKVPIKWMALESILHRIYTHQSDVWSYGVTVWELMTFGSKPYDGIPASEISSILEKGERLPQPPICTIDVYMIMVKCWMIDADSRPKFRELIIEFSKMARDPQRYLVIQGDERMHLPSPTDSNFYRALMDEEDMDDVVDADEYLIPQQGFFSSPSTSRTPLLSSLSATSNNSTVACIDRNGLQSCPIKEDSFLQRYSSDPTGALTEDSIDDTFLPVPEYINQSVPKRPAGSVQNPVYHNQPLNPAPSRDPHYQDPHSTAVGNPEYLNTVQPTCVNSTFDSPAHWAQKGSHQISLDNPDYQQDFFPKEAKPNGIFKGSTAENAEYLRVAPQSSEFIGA
Sequence of Ba/F3_EGFR D770_N771insSVD (P00533 with tags, fused parts or gaps DUP768-770): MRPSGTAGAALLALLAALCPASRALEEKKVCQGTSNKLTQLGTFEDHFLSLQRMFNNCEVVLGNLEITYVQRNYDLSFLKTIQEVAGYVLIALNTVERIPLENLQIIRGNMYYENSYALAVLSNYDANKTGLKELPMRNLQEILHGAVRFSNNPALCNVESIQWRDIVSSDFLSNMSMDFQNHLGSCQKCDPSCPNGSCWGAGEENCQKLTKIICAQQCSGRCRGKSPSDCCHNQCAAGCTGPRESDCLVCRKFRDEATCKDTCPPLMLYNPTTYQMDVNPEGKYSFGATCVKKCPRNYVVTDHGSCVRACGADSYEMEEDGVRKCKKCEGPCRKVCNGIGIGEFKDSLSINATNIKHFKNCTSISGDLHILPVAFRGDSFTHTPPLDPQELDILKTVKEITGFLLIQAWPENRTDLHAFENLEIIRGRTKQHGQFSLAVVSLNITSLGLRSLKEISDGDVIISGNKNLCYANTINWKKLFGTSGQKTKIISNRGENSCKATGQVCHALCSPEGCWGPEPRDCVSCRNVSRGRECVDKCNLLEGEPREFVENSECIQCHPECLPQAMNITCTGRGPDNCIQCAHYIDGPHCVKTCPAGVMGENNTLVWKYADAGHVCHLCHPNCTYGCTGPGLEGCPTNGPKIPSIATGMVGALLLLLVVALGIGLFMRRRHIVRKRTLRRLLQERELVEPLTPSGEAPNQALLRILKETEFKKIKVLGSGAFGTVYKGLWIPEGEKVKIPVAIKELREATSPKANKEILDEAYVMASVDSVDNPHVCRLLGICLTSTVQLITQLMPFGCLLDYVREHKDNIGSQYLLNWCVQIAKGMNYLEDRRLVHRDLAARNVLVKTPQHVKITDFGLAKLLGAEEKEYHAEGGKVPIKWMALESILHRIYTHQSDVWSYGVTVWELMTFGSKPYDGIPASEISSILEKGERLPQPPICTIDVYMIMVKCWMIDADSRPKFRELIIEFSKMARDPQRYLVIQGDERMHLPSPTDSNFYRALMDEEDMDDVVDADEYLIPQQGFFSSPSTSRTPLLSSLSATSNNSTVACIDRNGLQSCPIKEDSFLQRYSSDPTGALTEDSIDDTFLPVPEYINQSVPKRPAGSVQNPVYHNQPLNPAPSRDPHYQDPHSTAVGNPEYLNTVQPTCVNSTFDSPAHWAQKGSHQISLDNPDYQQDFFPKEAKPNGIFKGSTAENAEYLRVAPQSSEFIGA
Sequence of EGFR A763_Y764insFHEA (P00533 with tags, fused parts or gaps INS763FHEA limits assumed): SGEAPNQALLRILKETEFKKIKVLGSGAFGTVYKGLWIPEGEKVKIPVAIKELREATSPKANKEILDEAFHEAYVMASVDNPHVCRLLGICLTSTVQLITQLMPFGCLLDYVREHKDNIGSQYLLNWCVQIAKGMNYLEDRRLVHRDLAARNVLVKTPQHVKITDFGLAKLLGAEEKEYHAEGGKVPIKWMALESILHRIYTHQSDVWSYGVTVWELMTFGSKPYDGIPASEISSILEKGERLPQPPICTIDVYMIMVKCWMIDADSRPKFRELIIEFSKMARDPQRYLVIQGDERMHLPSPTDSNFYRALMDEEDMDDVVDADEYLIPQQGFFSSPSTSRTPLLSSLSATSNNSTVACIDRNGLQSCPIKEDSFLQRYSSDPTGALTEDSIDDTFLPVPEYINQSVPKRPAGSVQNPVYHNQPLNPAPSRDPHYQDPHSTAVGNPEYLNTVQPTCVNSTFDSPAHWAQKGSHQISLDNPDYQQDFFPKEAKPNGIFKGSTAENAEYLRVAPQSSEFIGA

With `C=CC(=O)Nc1cc(Nc2nccc(-n3c(=O)n4c5c(cccc53)CCC4)n2)c(OC)cc1N(C)CCN(C)C` [Compound 2, N-(2-((2-(dimethylamino)ethyl)(methyl)amino)-4-methoxy-5-((4-(2-oxo-5,6-dihydro-4H-imidazo[4,5,1-ij]quinolin-1(2H)-yl)pyrimidin-2-yl)amino)phenyl)acrylamide], the half-inhibitory concentration (IC50) (usually the concentration needed to halve the response being measured) came out at 1.23 nM on EGFR-WT; 0.299 nM at EGFR A763_Y764insFHEA; 0.0815 nM on EGFR D770-N771insNPG; 0.276 nM on EGFR D770GY; 0.0567 nM in series [1]; 0.107 nM at EGFR Del19. Besides, the IC50 at EGFR L792F worked out at 1.65 nM; at EGFR L792H, 46.9 nM; against EGFR T790M, 0.0509 nM; against EGFR T790M/L858R, 0.0724 nM; against HER2, 47 nM; on HER4, 1.35 nM. Moreover, the half-maximal inhibitory concentration (IC50) was determined as 71100 pM in [2] and 23000 pM in series [5]. The GI50 amounted to 9150 pM in series [3] and 23800 pM in [4].

On to `C=CC(=O)Nc1cc(Nc2nccc(-n3c(=O)n4c5c(cccc53)CCC4)n2)c(OCC(F)(F)F)nc1N(C)CCN(C)C` [Compound 6, N-(2-((2-(dimethylamino)ethyl)(methyl)amino)-5-((4-(2-oxo-5,6-dihydro-4H-imidazo[4,5,1-ij]quinolin-1(2H)-yl)pyrimidin-2-yl)amino)-6-(2,2,2-trifluoroethoxy)pyridin-3-yl)acrylamide], for which the half-maximal inhibitory concentration (IC50) on EGFR-WT worked out at 0.451 nM; on EGFR A763_Y764insFHEA, 0.149 nM; on EGFR D770-N771insNPG, 0.0688 nM; against EGFR D770GY, 0.0489 nM; in [1], 0.0834 nM; on EGFR Del19, 0.14 nM. Also, the IC50 on EGFR L792F is 4.09 nM; at EGFR L792H, above 100 nM; on EGFR T790M, 0.0656 nM; against EGFR T790M/L858R it was 0.0865 nM; on HER2, 25.1 nM; at HER4, 0.725 nM. The IC50 in series [2] was found to be 140000 pM; in series [5], 14800 pM. Also, the GI50 in series [3] is 3470 pM; in series [4], 13300 pM.

Consider `C=CC(=O)Nc1cc(Nc2nccc(-n3c(=O)n4c5c(cccc53)CCC4)n2)c(OC)nc1N(C)CCN(C)C` [Compound 4, N-(2-((2-(dimethylamino)ethyl)(methyl)amino)-6-methoxy-5-((4-(2-oxo-5,6-dihydro-4H-imidazo[4,5,1-ij]quinolin-1(2H)-yl)pyrimidin-2-yl)amino)pyridin-3-yl)acrylamide], for which the IC50 amounted to 0.552 nM against EGFR-WT; 0.143 nM at EGFR A763_Y764insFHEA; 0.0554 nM on EGFR D770-N771insNPG; 0.13 nM on EGFR D770GY; 0.0514 nM in series [1]; 0.233 nM against EGFR Del19. For the same compound, the IC50 stood at 0.415 nM against EGFR L792F; 15.6 nM against EGFR L792H; 0.0573 nM on EGFR T790M; 0.0841 nM against EGFR T790M/L858R; 34.6 nM at HER2; 0.694 nM against HER4. Further, the half-inhibitory concentration (IC50) is 154000 pM in [2] and 12400 pM in series [5]. Besides, the GI50 was 5080 pM in series [3] and 15700 pM in series [4].

For `C=CC(=O)N1CCC(Oc2cc3c(Nc4ccc(Cl)c(Cl)c4F)ncnc3cc2OC)CC1` [poziotinib, reference compound], the entries for the “TGI (%)” value with LU-01-0426, in the series with LU-01-0493 and in the series on LU-0387 were 91.3%, 56.8% and 74.49%, respectively. The entries for the “Terminal body weight changes (%)” value with LU-01-0426 (day 1 to day 21), with LU-01-0493 (day 1 to day 21) and in the series on LU-0387 (day 1 to day 21) were −7.4%, −12.4% and 0%, respectively.

Consider `[2H]C([2H])([2H])Oc1cc(N(C)CCN(C)C([2H])([2H])[2H])c(NC(=O)C=C)cc1Nc1nccc(-n2c(=O)n3c4c(cc(F)cc42)CCC3)n1` [Compound 43, N-(5-((4-(8-fluoro-2-oxo-5,6-dihydro-4H-imidazo[4,5,1-ij]quinolin-1(2H)-yl)pyrimidin-2-yl)amino)-4-(methoxy-d3)-2-(methyl(2-(methyl(methyl-d3)amino)ethyl)amino)phenyl) acrylamide], for which the results for the IC50 in series [2] and in series [5] were 254000 pM and 19800 pM, respectively. The GI50 in series [3] is 6650 pM; in [4], 16600 pM.

For the origin of these results see US11993598B2, “Compounds for inhibiting EGFR kinase, preparation methods and uses thereof” (WIGEN BIOMEDICINE TECHNOLOGY (SHANGHAI) CO., LTD., priority 2019, dated 2024).
